{"source": "patent US20260027116A1", "about": "“Methods of Treating Chronic Graft-Versus-Host Disease Following Allogeneic Hematopoietic Stem Cell Transplantation” (Kadmon Corporation, LLC, priority 2022, published 2026)", "system": "patients with cGVHD", "settings": "Cohort 1 200 mg QD"}
{"smiles": "CC(C)NC(=O)COc1cccc(-c2nc(Nc3ccc4[nH]ncc4c3)c3ccccc3n2)c1", "note": "[Belumosudil, 2-{3-[4-(1H-indazol-5-ylamino)-2-quinazolinyl]phenoxy}-N-(propan-2-yl) acetamide]", "values": [{"measurement": "Grade ≥3 Lung infection or pneumonia, No. (%)", "value": "1 (6)"}, {"measurement": "Graft versus host disease in gastrointestinal tract: # Events", "value": 1}, {"measurement": "Graft versus host disease in gastrointestinal tract: Affected/At Risk (%)", "value": "1/17 (5.88%)"}, {"measurement": "Gynaecomastia: # Events", "value": 0}, {"measurement": "Gynaecomastia: Affected/At Risk (%)", "value": "0/17 (0%)"}, {"measurement": "Haematuria: # Events", "value": 1}, {"measurement": "Haematuria: Affected/At Risk (%)", "value": "1/17 (5.88%)"}, {"measurement": "Hair growth abnormal: # Events", "value": 1}, {"measurement": "Hair growth abnormal: Affected/At Risk (%)", "value": "1/17 (5.88%)"}, {"measurement": "Headache: # Events", "value": 4}, {"measurement": "Headache: Affected/At Risk (%)", "value": "4/17 (23.53%)"}, {"measurement": "Hodgkin's disease recurrent: # Events", "value": 1}, {"measurement": "Hodgkin's disease recurrent: Affected/At Risk (%)", "value": "1/17 (5.88%)"}, {"measurement": "Hordeolum: # Events", "value": 1}, {"measurement": "Hordeolum: Affected/At Risk (%)", "value": "1/17 (5.88%)"}, {"measurement": "Hot flush: # Events", "value": 1}, {"measurement": "Hot flush: Affected/At Risk (%)", "value": "1/17 (5.88%)"}, {"measurement": "Hyperglycemia: # Events", "value": 2}, {"measurement": "Hyperglycemia: Affected/At Risk (%)", "value": "2/17 (11.76%)"}, {"measurement": "Hyperhidrosis: # Events", "value": 0}, {"measurement": "Hyperhidrosis: Affected/At Risk (%)", "value": "0/17 (0%)"}, {"measurement": "Hyperkalaemia: # Events", "value": 7}, {"measurement": "Hyperkalaemia: Affected/At Risk (%)", "value": "3/17 (17.65%)"}, {"measurement": "Hypertension: # Events", "value": 8}, {"measurement": "Hypertension: Affected/At Risk (%)", "value": "5/17 (29.41%)"}, {"measurement": "Hyperthyroidism: # Events", "value": 0}, {"measurement": "Hyperthyroidism: Affected/At Risk (%)", "value": "0/17 (0%)"}, {"measurement": "Hypertriglyceridaemia: # Events", "value": 0}, {"measurement": "Hypertriglyceridaemia: Affected/At Risk (%)", "value": "0/17 (0%)"}, {"measurement": "Hyperuricaemia: # Events", "value": 6}, {"measurement": "Hyperuricaemia: Affected/At Risk (%)", "value": "1/17 (5.88%)"}, {"measurement": "Hypoaesthesia: # Events", "value": 2}, {"measurement": "Hypoaesthesia: Affected/At Risk (%)", "value": "1/17 (5.88%)"}, {"measurement": "Hypocalcaemia: # Events", "value": 0}, {"measurement": "Hypocalcaemia: Affected/At Risk (%)", "value": "0/17 (0%)"}, {"measurement": "Hypogonadism: # Events", "value": 1}, {"measurement": "Hypogonadism: Affected/At Risk (%)", "value": "1/17 (5.88%)"}, {"measurement": "Hypokalaemia: # Events", "value": 1}, {"measurement": "Hypokalaemia: Affected/At Risk (%)", "value": "1/17 (5.88%)"}, {"measurement": "Hypomagnesaemia: # Events", "value": 1}, {"measurement": "Hypomagnesaemia: Affected/At Risk (%)", "value": "1/17 (5.88%)"}, {"measurement": "Hyponatraemia: # Events", "value": 1}, {"measurement": "Hyponatraemia: Affected/At Risk (%)", "value": "1/17 (5.88%)"}, {"measurement": "Hypophosphataemia: # Events", "value": 1}, {"measurement": "Hypophosphataemia: Affected/At Risk (%)", "value": "1/17 (5.88%)"}, {"measurement": "Hypothermia: # Events", "value": 0}, {"measurement": "Hypothermia: Affected/At Risk (%)", "value": "0/17 (0%)"}, {"measurement": "Hypothyroidism: # Events", "value": 2}, {"measurement": "Hypothyroidism: Affected/At Risk (%)", "value": "1/17 (5.88%)"}, {"measurement": "Hypoxia: # Events", "value": 1}, {"measurement": "Hypoxia: Affected/At Risk (%)", "value": "1/17 (5.88%)"}, {"measurement": "Impaired healing: # Events", "value": 1}, {"measurement": "Impaired healing: Affected/At Risk (%)", "value": "1/17 (5.88%)"}, {"measurement": "Influenza like illness: # Events", "value": 1}, {"measurement": "Influenza like illness: Affected/At Risk (%)", "value": "1/17 (5.88%)"}, {"measurement": "Influenza: # Events", "value": 2}, {"measurement": "Influenza: Affected/At Risk (%)", "value": "2/17 (11.76%)"}, {"measurement": "Insomnia: # Events", "value": 0}, {"measurement": "Insomnia: Affected/At Risk (%)", "value": "0/17 (0%)"}, {"measurement": "Irritability: # Events", "value": 1}, {"measurement": "Irritability: Affected/At Risk (%)", "value": "1/17 (5.88%)"}, {"measurement": "Joint range of motion decreased: # Events", "value": 0}, {"measurement": "Joint range of motion decreased: Affected/At Risk (%)", "value": "0/17 (0%)"}, {"measurement": "Lacrimation increased: # Events", "value": 0}, {"measurement": "Lacrimation increased: Affected/At Risk (%)", "value": "0/17 (0%)"}, {"measurement": "Leukaemia recurrent: # Events", "value": 1}, {"measurement": "Leukaemia recurrent: Affected/At Risk (%)", "value": "1/17 (5.88%)"}, {"measurement": "Leukocytosis: # Events", "value": 1}, {"measurement": "Leukocytosis: Affected/At Risk (%)", "value": "1/17 (5.88%)"}, {"measurement": "Ligament sprain: # Events", "value": 1}, {"measurement": "Ligament sprain: Affected/At Risk (%)", "value": "1/17 (5.88%)"}, {"measurement": "Limb injury: # Events", "value": 1}, {"measurement": "Limb injury: Affected/At Risk (%)", "value": "1/17 (5.88%)"}, {"measurement": "Macular degeneration: # Events", "value": 0}, {"measurement": "Macular degeneration: Affected/At Risk (%)", "value": "0/17 (0%)"}, {"measurement": "Migraine: # Events", "value": 0}, {"measurement": "Migraine: Affected/At Risk (%)", "value": "0/17 (0%)"}, {"measurement": "Muscle spasms: # Events", "value": 1}, {"measurement": "Muscle spasms: Affected/At Risk (%)", "value": "1/17 (5.88%)"}, {"measurement": "Muscle spasticity: # Events", "value": 1}, {"measurement": "Muscle spasticity: Affected/At Risk (%)", "value": "1/17 (5.88%)"}, {"measurement": "Muscular weakness: # Events", "value": 6}, {"measurement": "Muscular weakness: Affected/At Risk (%)", "value": "4/17 (23.53%)"}, {"measurement": "Musculoskeletal chest pain: # Events", "value": 1}, {"measurement": "Musculoskeletal chest pain: Affected/At Risk (%)", "value": "1/17 (5.88%)"}, {"measurement": "Myalgia: # Events", "value": 2}, {"measurement": "Myalgia: Affected/At Risk (%)", "value": "1/17 (5.88%)"}, {"measurement": "Nail disorder: # Events", "value": 1}, {"measurement": "Nail disorder: Affected/At Risk (%)", "value": "1/17 (5.88%)"}, {"measurement": "Nasal congestion: # Events", "value": 3}, {"measurement": "Nasal congestion: Affected/At Risk (%)", "value": "3/17 (17.65%)"}, {"measurement": "Nausea: # Events", "value": 10}, {"measurement": "Nausea: Affected/At Risk (%)", "value": "6/17 (35.29%)"}, {"measurement": "Neck pain: # Events", "value": 1}, {"measurement": "Neck pain: Affected/At Risk (%)", "value": "1/17 (5.88%)"}, {"measurement": "Nephrotic syndrome: # Events", "value": 1}, {"measurement": "Nephrotic syndrome: Affected/At Risk (%)", "value": "1/17 (5.88%)"}, {"measurement": "Neuropathy peripheral: # Events", "value": 0}, {"measurement": "Neuropathy peripheral: Affected/At Risk (%)", "value": "0/17 (0%)"}, {"measurement": "Neutrophil count decreased: # Events", "value": 1}, {"measurement": "Neutrophil count decreased: Affected/At Risk (%)", "value": "1/17 (5.88%)"}, {"measurement": "Nocturia: # Events", "value": 1}, {"measurement": "Nocturia: Affected/At Risk (%)", "value": "1/17 (5.88%)"}, {"measurement": "Non-cardiac chest pain: # Events", "value": 0}, {"measurement": "Non-cardiac chest pain: Affected/At Risk (%)", "value": "0/17 (0%)"}, {"measurement": "Obesity: # Events", "value": 2}, {"measurement": "Obesity: Affected/At Risk (%)", "value": "2/17 (11.76%)"}, {"measurement": "Oedema peripheral: # Events", "value": 3}, {"measurement": "Oedema peripheral: Affected/At Risk (%)", "value": "3/17 (17.65%)"}, {"measurement": "Oedema: # Events", "value": 0}, {"measurement": "Oedema: Affected/At Risk (%)", "value": "0/17 (0%)"}, {"measurement": "Oesophageal ulcer: # Events", "value": 0}, {"measurement": "Oesophageal ulcer: Affected/At Risk (%)", "value": "0/17 (0%)"}, {"measurement": "Oral candidiasis: # Events", "value": 3}, {"measurement": "Oral candidiasis: Affected/At Risk (%)", "value": "2/17 (11.76%)"}, {"measurement": "Oropharyngeal pain: # Events", "value": 1}, {"measurement": "Oropharyngeal pain: Affected/At Risk (%)", "value": "1/17 (5.88%)"}, {"measurement": "Orthopnoea: # Events", "value": 1}, {"measurement": "Orthopnoea: Affected/At Risk (%)", "value": "1/17 (5.88%)"}, {"measurement": "Osteonecrosis: # Events", "value": 1}, {"measurement": "Osteonecrosis: Affected/At Risk (%)", "value": "1/17 (5.88%)"}, {"measurement": "Osteopenia: # Events", "value": 0}, {"measurement": "Osteopenia: Affected/At Risk (%)", "value": "0/17 (0%)"}, {"measurement": "Osteoporosis: # Events", "value": 0}, {"measurement": "Osteoporosis: Affected/At Risk (%)", "value": "0/17 (0%)"}, {"measurement": "Overdose: # Events", "value": 1}, {"measurement": "Overdose: Affected/At Risk (%)", "value": "1/17 (5.88%)"}, {"measurement": "Pain in extremity: # Events", "value": 2}, {"measurement": "Pain in extremity: Affected/At Risk (%)", "value": "2/17 (11.76%)"}, {"measurement": "Pain: # Events", "value": 3}, {"measurement": "Pain: Affected/At Risk (%)", "value": "3/17 (17.65%)"}, {"measurement": "Palpitations: # Events", "value": 1}, {"measurement": "Palpitations: Affected/At Risk (%)", "value": "1/17 (5.88%)"}, {"measurement": "Paraesthesia: # Events", "value": 0}, {"measurement": "Paraesthesia: Affected/At Risk (%)", "value": "0/17 (0%)"}, {"measurement": "Pericardial effusion: # Events", "value": 1}, {"measurement": "Pericardial effusion: Affected/At Risk (%)", "value": "1/17 (5.88%)"}, {"measurement": "Peripheral coldness: # Events", "value": 1}, {"measurement": "Peripheral coldness: Affected/At Risk (%)", "value": "1/17 (5.88%)"}, {"measurement": "Peripheral sensory neuropathy: # Events", "value": 0}, {"measurement": "Peripheral sensory neuropathy: Affected/At Risk (%)", "value": "0/17 (0%)"}, {"measurement": "Phlebitis: # Events", "value": 0}, {"measurement": "Phlebitis: Affected/At Risk (%)", "value": "0/17 (0%)"}, {"measurement": "Photophobia: # Events", "value": 0}, {"measurement": "Photophobia: Affected/At Risk (%)", "value": "0/17 (0%)"}, {"measurement": "Platelet count decreased: # Events", "value": 3}, {"measurement": "Platelet count decreased: Affected/At Risk (%)", "value": "1/17 (5.88%)"}, {"measurement": "Pleural effusion: # Events", "value": 1}, {"measurement": "Pleural effusion: Affected/At Risk (%)", "value": "1/17 (5.88%)"}, {"measurement": "Pneumonia respiratory syncytial viral: # Events", "value": 0}, {"measurement": "Pneumonia respiratory syncytial viral: Affected/At Risk (%)", "value": "0/17 (0%)"}, {"measurement": "Pneumonia: # Events", "value": 2}, {"measurement": "Pneumonia: Affected/At Risk (%)", "value": "1/17 (5.88%)"}, {"measurement": "Pollakiuria: # Events", "value": 1}, {"measurement": "Pollakiuria: Affected/At Risk (%)", "value": "1/17 (5.88%)"}, {"measurement": "Presyncope: # Events", "value": 0}, {"measurement": "Presyncope: Affected/At Risk (%)", "value": "0/17 (0%)"}, {"measurement": "Productive cough: # Events", "value": 2}, {"measurement": "Productive cough: Affected/At Risk (%)", "value": "2/17 (11.76%)"}, {"measurement": "Proteinuria: # Events", "value": 2}, {"measurement": "Proteinuria: Affected/At Risk (%)", "value": "2/17 (11.76%)"}, {"measurement": "Pruritus: # Events", "value": 1}, {"measurement": "Pruritus: Affected/At Risk (%)", "value": "1/17 (5.88%)"}, {"measurement": "Pseudomonas infection: # Events", "value": 1}, {"measurement": "Pseudomonas infection: Affected/At Risk (%)", "value": "1/17 (5.88%)"}, {"measurement": "Pulmonary mass: # Events", "value": 0}, {"measurement": "Pulmonary mass: Affected/At Risk (%)", "value": "0/17 (0%)"}, {"measurement": "Pyrexia: # Events", "value": 3}, {"measurement": "Pyrexia: Affected/At Risk (%)", "value": "1/17 (5.88%)"}]}
